US5066655A (priority 1989, dated 1991)

What was measured:
[1] = target: T1, A1 adenosine receptor (guinea pig atrium) (Cavia porcellus, UniProt P47745); assay: Antagonism of adenosine agonists in isolated guinea pig left atrium (force of contraction); details: for antagonism of adenosine agonists in atria / basal force of contraction in the atria: guinea pig atria; for antagonism of adenosine agonists in atria: result in words
T1 construct: The left atria from male guinea pigs were isolated; from tissue; host or cells: left atria of male guinea pigs
T1 sequence (P47745 1-326): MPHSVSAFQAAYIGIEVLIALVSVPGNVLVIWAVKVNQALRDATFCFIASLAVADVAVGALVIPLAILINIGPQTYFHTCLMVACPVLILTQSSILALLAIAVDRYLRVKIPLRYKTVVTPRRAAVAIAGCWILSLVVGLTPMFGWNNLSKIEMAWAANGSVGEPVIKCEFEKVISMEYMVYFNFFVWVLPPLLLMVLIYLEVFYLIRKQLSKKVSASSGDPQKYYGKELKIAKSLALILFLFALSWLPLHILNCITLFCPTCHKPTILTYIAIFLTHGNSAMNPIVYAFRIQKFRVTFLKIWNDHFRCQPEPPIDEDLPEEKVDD
Description: The left atria from male guinea pigs were isolated, suspended between two punctate electrodes, and placed in a 20 ml organ bath that contained Krebs-Hensileit solution that was continuously gassed with 95% O2 + 5% CO2 and maintained at 31° C. The resting tension was one gram. Theatria were stimulated electrically at 1 hz, 1 ms duration pulses at supramaximal voltage. The force of contraction was recorded isometrically.
(§1) The ability of the compounds to antagonize the effects of agonists was analyzed using modified Schild plots.

[2] = tested on: A2 adenosine receptor (guinea pig taenia caecum); assay: Antagonism of adenosine agonists in isolated guinea pig taenia caecum (contractile tone); details: for antagonism of adenosine agonists in taenia caecum: guinea pig taenia caecum relaxation; for sensitization of the tissue: guinea pig taenia caecum, high concentrations
Description: Taenia from the guinea pig caecum were cut into lengths of 1.5-2 cm. The tissues were suspended in a 20 ml organ bath containing de Jalon's solution that was gassed with 95% O2 + 5% CO2 and maintained at 31° C. The resting tension was 1.5 g. The contractile response was measured isotonically.
as §1

[3] = tested on: adenosine receptors (A1: heart rate; A2: blood pressure); assay: In vivo test on heart rate, blood pressure and ECG in anesthetized rats; design: species or system rat
Excerpt: Drug injections were made intravenously through a jugular cannula.

[4] = target: T2, A1 receptors of rat fat cells (Rattus norvegicus, UniProt P25099); assay: Antagonism of R-PIA-induced inhibition of rat fat cell adenylate cyclase activity; type: biochemical; details: rat fat cell membranes, result in words
T2 sequence (P25099 1-326): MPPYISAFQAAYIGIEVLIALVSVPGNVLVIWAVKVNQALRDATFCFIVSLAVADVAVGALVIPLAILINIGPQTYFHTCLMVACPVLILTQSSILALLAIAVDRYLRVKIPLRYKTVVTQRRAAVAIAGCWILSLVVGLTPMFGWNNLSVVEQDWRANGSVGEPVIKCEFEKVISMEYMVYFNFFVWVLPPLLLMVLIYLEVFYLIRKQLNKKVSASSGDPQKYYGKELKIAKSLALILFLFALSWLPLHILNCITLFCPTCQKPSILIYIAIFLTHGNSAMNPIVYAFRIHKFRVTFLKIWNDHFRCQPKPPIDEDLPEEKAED
Description: (§2) Human platelet, rat pheochromocytoma (PC12) cell, rat fat cell and rat cerebral cortex membranes were prepared as described (4,5,6). Adenylate cyclase activity and binding [^3 H]PIA to cerebral cortex membranes were determined essentially as described (4,5,6). KB values for the compounds were determined as described (4). […] EC50 and IC50 values for the agonists were obtained from the concentration-response curves by linear regression after logit-log transformation. KB values of the antagonists were calculated using the Schild equation KB =C/(CR-1), where C denotes the concentration of the competitor and CR the ratio of the EC50 and IC50 values in the presence and absence, respectively, of the competitor. IC50 of the compounds for inhibition of [^3 H]PIA binding to cerebral cortex membranes were transformed into Ki values as described (6).

[5] = tested on: A1 and A2 adenosine receptors; assay: Activity at adenosine receptors, A1 versus A2 selectivity (overall); type: biochemical; details: for receptor selectivity A1 versus A2: in words; for stereoselectivity: A1 and A2 receptors
Description: as §2

A1 receptors = target: T3, A1 receptors (Rattus norvegicus, UniProt P25099); assay: Activity at A1 adenosine receptors (overall, fat cells and brain membranes); type: biochemical; details: discussion, fat cell and brain data
T3 sequence (P25099 1-326): T2 sequence (P25099 1-326)
Description: as §2

[6] = target: A2 receptors of human platelets (Homo sapiens, UniProt P29274); assay: Antagonism of NECA-induced stimulation of adenylate cyclase activity of human platelet membranes; type: biochemical; details: for antagonist potency at platelet A2 receptor: human platelet membranes, NECA-stimulated adenylate cyclase, result in words; for potency at platelet A2 receptor relative to PC12 A2 receptor: human platelets versus rat PC12 cells
A2 receptors of human platelets, sequence (P29274 whole entry): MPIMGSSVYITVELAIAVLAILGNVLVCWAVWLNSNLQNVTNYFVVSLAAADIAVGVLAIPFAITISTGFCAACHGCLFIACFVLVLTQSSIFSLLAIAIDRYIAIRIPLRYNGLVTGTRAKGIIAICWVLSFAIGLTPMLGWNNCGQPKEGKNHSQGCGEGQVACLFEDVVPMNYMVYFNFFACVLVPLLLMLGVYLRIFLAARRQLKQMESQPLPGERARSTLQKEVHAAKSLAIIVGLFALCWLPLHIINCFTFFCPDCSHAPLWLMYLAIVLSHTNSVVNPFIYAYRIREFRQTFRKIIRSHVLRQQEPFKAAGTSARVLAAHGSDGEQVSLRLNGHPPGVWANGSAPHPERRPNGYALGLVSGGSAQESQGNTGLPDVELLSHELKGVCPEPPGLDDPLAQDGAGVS
Description: as §2
In these cells, A2 receptor-mediated stimulation of adenylate cyclase results in an inhibition of aggregation (5,7).

[7] = tested on: A2 receptors of PC12 cells; details: cited from earlier work
A1 adenosine receptors = details: literature; cited from earlier work

Which “antagonism of adenosine agonists in atria” value (“antagonism … in atria” below) [1] does the source give for `Cn1cnc2c(N[C@H]3C[C@H]4CC[C@@H]3C4)ncnc21` (relative stereo) [Example 22, N^6-(endonorbornyl)-9-MA] here?
The value was “competitive antagonists”.

And the “antagonism … in atria” value ([1]; listed as Ex. 22)?
The value was “most potent antagonist”.

And the Kb ([1]; read-out: Affinity constants (pKB) (converted))?
The Kb was 525 nM.

And the “antagonism of adenosine agonists in taenia caecum” value (“antagonism … in taenia caecum” below) [2]?
Its value is “did not competitively antagonize the effects of adenosine agonists”.

What about the “sensitization of the tissue” value [2] of the same compound?
Its value is “some sensitization of the tissue”.

And the cardioselectivity in vivo [3]?
Its cardioselectivity in vivo is “cardioselective adenosine receptor antagonist in vivo”.

What about the “effect on adenosine-induced changes of blood pressure, heart rate and P-R interval” value ([3]; i.v.) of the same compound?
The value was “attenuated the effects of subsequently administered adenosine on all parameters measured”.

And the “effect on adenosine-induced heart block” value ([3]; i.v., high doses of adenosine)?
The value was “substantially reduced”.

What about the “effect on NECA action on the heart” value ([3]; i.v., prior administration) of the same compound?
Its value is “attenuated the effects of NECA on the heart”.

And the “effect on NECA-induced decrease in blood pressure” value ([3]; i.v., prior administration)?
Its value is “minimally affecting the NECA-induced decrease in blood pressure”.

What does the source list for `Cn1cnc2c(NC3CCC3)ncnc21` [Example 3, N^6 -Cyclobutyl-9-MA]?
antagonist potency at A1 receptors of fat cells [4]: more potent than the parent compound 9-methyladenine; receptor selectivity A1 versus A2 [5]: selective for receptors; activity at A1 receptors, in words (A1 receptors): most potent of N^6 -substituted 9-methyladenines at A1 receptors; antagonist potency at platelet A2 receptor [6]: more potent than 9-methyladenine itself

Which “antagonist potency at A1 receptors of fat cells” value [4] does the source give for `Cn1cnc2c(NC3CCCCC3)ncnc21` [Example 6, N^6 -Cyclohexyl-9-MA] here?
Its value is “more potent than the parent compound 9-methyladenine”.

What about the “receptor selectivity A1 versus A2” value [5] of the same compound?
The value was “selective for receptors”.

What about the “activity at A1 receptors, in words” value (A1 receptors) of the same compound?
Its value is “most potent of N^6 -substituted 9-methyladenines at A1 receptors”.

What about the “antagonist potency at platelet A2 receptor” value [6] of the same compound?
The value was “more potent than 9-methyladenine itself”.

Which results are given for `CNc1ncnc2c1ncn2C` [Example 7, N^6 -Methyl-9-MA]?
antagonist potency at A1 receptors of fat cells [4]: less potent than 9-methyladenine; activity at A1 receptors, in words (A1 receptors): reduces activity; antagonist potency at platelet A2 receptor [6]: much less potent than 9-methyladenine

With `CCC(CC)Nc1ncnc2c1ncn2C` [Example 8, N^6-3-Pentyl-9-MA] as the compound, how does the “basal force of contraction in the atria” value [1] read?
The value was “increases in basal force of contraction”.

What about the “antagonism … in atria” value [1] of the same compound?
The value was “competitive antagonists”.

What about the “antagonism … in taenia caecum” value [2] of the same compound?
Its value is “did not competitively antagonize the effects of adenosine agonists”.

What about the “sensitization of the tissue” value [2] of the same compound?
Its value is “some sensitization of the tissue”.

And the “antagonist potency at A1 receptors of fat cells” value [4]?
Its value is “more potent than the aprent compound”.

And the “antagonist potency at platelet A2 receptor” value [6]?
Its value is “more potent”.

What about the “antagonist potency at platelet A2 receptor” value ([6]; listed as 3-pentyl-) of the same compound?
Its value is “enhance activity”.

And the “potency at platelet A2 receptor relative to PC12 A2 receptor” value [6]?
The value was “more potent at the platelet A2 receptor than at the PC12 A2 receptor”.

Which “antagonism … in taenia caecum” value [2] does the source give for `Cn1c(=O)c2[nH]c(-c3ccccc3)nc2n(C)c1=O` [Example 8-PT, 8-phenyltheophylline, reference compound] here?
Its value is “did antagonize the effects of agonists at low concentrations”.

What about the “sensitization of the tissue” value [2] of the same compound?
The value was “sensitization effect is also observed”.

What about the “receptor selectivity A1 versus A2” value [5] of the same compound?
Its value is “nonselective adenosine receptor antagonist”.

What does the source list for `Cn1cnc2c(Nc3ccccc3)ncnc21` [Example 9, N^6 -Phenyl-9-MA]?
antagonist potency at A1 receptors of fat cells [4]: more potent than 9-methyladenine in the fat cell; antagonist potency at platelet A2 receptor [6]: equipotent to 9-methyladenine; potency at platelet A2 receptor relative to PC12 A2 receptor [6]: more potent at the platelet A2 receptor than at the PC12 A2 receptor

Which results are given for `Cn1cnc2c(Nc3ccccc3F)ncnc21` [Example 10, N^6-2-Fluorophenyl-9-MA]?
antagonist potency at A1 receptors of fat cells [4]: more potent than 9-methyladenine in the fat cell; antagonist potency at platelet A2 receptor [6]: increases potency; antagonist potency at platelet A2 receptor ([6]; listed as 2-fluorophenyl-): enhance activity

Which “activity at A1 receptors, in words” value (A1 receptors) does the source give for `Cn1cnc2c(NCc3ccccc3)ncnc21` [Example 11, N^6 -Benzyl-9-MA] here?
Its value is “modest activity”.

And the “antagonist potency at platelet A2 receptor” value [6]?
The value was “less potent than 9-methyladenine”.

For `Cn1cnc2c(NCCc3ccccc3)ncnc21` [Example 12, N^6-2-Phenethyl-9-MA], which “antagonist potency at A1 receptors of fat cells” value [4] is on record?
The value was “much less potent”.

And the “antagonist potency at platelet A2 receptor” value [6]?
The value was “less potent than 9-methyladenine”.

With `COc1cc(CCNc2ncnc3c2ncn3C)cc(OC)c1OC` [Example 13] as the compound, how does the “receptor selectivity A1 versus A2” value [5] read?
The value was “selectivity for A2 receptors”.

What about the “antagonist potency at platelet A2 receptor” value [6] of the same compound?
Its value is “as potent as 9-methyladenine”.

For `Cn1cnc2c(NCCc3cccnc3)ncnc21` [Example 14, N^6-2-(3-Pyridylethyl)-9-MA], which “antagonist potency at platelet A2 receptor” value [6] is on record?
Its value is “less potent than 9-methyladenine”.

Which results are given for `Cn1cnc2c(NCCc3ccsc3)ncnc21` [Example 15, N^6-2-(3-Thienylethyl)-9-MA]?
antagonist potency at A1 receptors of fat cells [4]: more potent than 9-methyladenine itself in the fat cell; antagonist potency at platelet A2 receptor [6]: somewhat more potent; antagonist potency at platelet A2 receptor ([6]; listed as 2-(3 -thienylethyl)-): enhance activity

What does the source list for `C[C@H](Cc1ccccc1)Nc1ncnc2c1ncn2C` [Example 16, N^6 - -- R-1-Phenyl-2-propyl-9-MA]?
antagonist potency at A1 receptors of fat cells [4]: more potent than the parent compound at A1 receptors of fat cells; stereoselectivity [5]: exhibit stereoselectivity at both A1 and A2 receptors; antagonist potency at platelet A2 receptor [6]: more potent than the S-isomer; antagonist potency at platelet A2 receptor ([6]; listed as R-1-phenyl-2-propyl-): enhance activity

For `C[C@@H](Cc1ccccc1)Nc1ncnc2c1ncn2C` [Example 17, N^6 - -- S-1-Phenyl-2-propyl-9-MA], which “antagonist potency at A1 receptors of fat cells” value [4] is on record?
The value was “more potent than the parent compound at A1 receptors of fat cells”.

And the stereoselectivity [5]?
The stereoselectivity was “exhibit stereoselectivity at both A1 and A2 receptors”.

For `CCC(Cc1cccs1)Nc1ncnc2c1ncn2C` (centres unmarked) [Example 23], which “basal force of contraction in the atria” value [1] is on record?
Its value is “increases in basal force of contraction”.

And the “antagonism … in atria” value [1]?
The value was “competitive antagonists”.

For `OC[C@H]1O[C@@H](n2cnc3c(NC4CCCCC4)ncnc32)[C@H](O)[C@@H]1O` [N^6 -cyclohexyl-], which “agonist potency at PC12 A2 receptors, in words” value (“agonist potency … in words” for short) [7] is on record?
The value was “more potent of the series”.

For `CNc1ncnc2c1ncn2[C@@H]1O[C@H](CO)[C@@H](O)[C@H]1O` [N^6 -methyladenosine], which “affinity/activity at A1 receptors, in words” value (A1 adenosine receptors) is on record?
Its value is “low activity”.

Which “agonist potency … in words” value [7] does the source give for `COc1cc(CCNc2ncnc3c2ncn3[C@@H]2O[C@H](CO)[C@@H](O)[C@H]2O)cc(OC)c1OC` [N^6-2-(3,4,5-trimethoxyphenylethyl)-] here?
The value was “more potent of the series”.

With `OC[C@H]1O[C@@H](n2cnc3c(NCCc4cccnc4)ncnc32)[C@H](O)[C@@H]1O` [N^6-2-(3-pyridylethyl)-] as the compound, how does the “agonist potency … in words” value [7] read?
Its value is “more potent of the series”.

With `OC[C@H]1O[C@@H](n2cnc3c(NCCc4ccccc4)ncnc32)[C@H](O)[C@@H]1O` [N^6-2-phenethyl-] as the compound, how does the “agonist potency … in words” value [7] read?
The value was “more potent of the series”.

Which “affinity/activity at A1 receptors, in words” value (A1 adenosine receptors) does the source give for `CC1(Nc2ncnc3c2ncn3[C@@H]2O[C@H](CO)[C@@H](O)[C@H]2O)CCCC1` [N^6-(1-methylcyclopentyl)adenosine] here?
Its value is “reduced compared to N^6 -cyclopentyladenosine”.
